Assay results: patent US20150159222A1, “MARKERS ASSOCIATED WITH HUMAN DOUBLE MINUTE 2 INHIBITORS” (NOVARTIS AG, priority 2012, published 2015)

Key:
SJSA-1 osteosarcoma line = details: SJSA-1, amplified copies of the MDM2 gene; cited from earlier work
SJSA-1 cell line = details: SJSA-1 xenografts in mouse; cited from earlier work
mouse normal fibroblasts = details: cited from earlier work
human normal fibroblasts = details: cited from earlier work
[1] = tested on: p53 wild-type (SJSA-1 and HCT116 p53wt/wt cells) and p53 mutant cell lines (SAOS2 and HCT116 p53-/- cells); experiment: Cell proliferation inhibition assay (YOPRO); type: cell-based; details: 72 hours; p53 wild-type vs p53 mutant cell lines
Method: Lucern, Switzerland). Briefly, cells are plated in 96-well plates overnight at 37° C. and are treated with increasing concentrations of MDM2i(1) or MDM2i(2) for 72 hours. Cell concentration in each well is then determined using the DNA-interacting fluorescent dye YOPRO according to the manufacturer's instructions and the fluorescent signal is measured using a Gemini-EM standard plate reader (Molecular Devices: Sunnyvale, Calif., USA).

COLO 792 cells = experiment: Western blot of p53 pathway proteins in COLO 792 cells; type: cell-based; details: 4 hours
Method: (§1) That the biomarkers in Table 2/FIG. 3 are reflective of a functional p53 pathway in MDM2i sensitive cells is verified in FIG. 4. […]. Whole cell lysates were prepared using a cell lysis buffer containing 50 mM Tris-HCl pH 7.5, 120 mM NaCl, 1 mM EDTA, 6 mM EGTA pH 8.5, 1% NP-40, 20 mM NaF, 1 mM PMSF and 0.5 mM Na-Vanadat, proteins were separated on NuPAGE 4-12% Bis-Tris Gel (Invitrogen # NP0322BOX, Lucerne; Switzerland), transferred onto Nitrocellulose Protran® BA 85 membranes (Whatman #10 401 261: Piscataway, N.J., USA) at 1.5 mA/cm^2 membrane for 2 h using a semi-dry blotting system, and immunoblotted with either an anti-phospho-p53 (Ser^15) (1/1000; Cell Signaling Technology #9284: Beverly, Mass., USA) rabbit polyclonal antibody, or an anti-p53 (Ab-6) (Pantropic, clone DO-1,) (1/1000; Calbiochem # OP43 San Diego, Calif., USA), an anti-MDM2 (Ab-1, clone IF2) (1/1000; Calbiochem # OP46), an anti-p21^WAF1(Ab-1, clone EA10) (1/500; Calbiochem # OP64: San Diego, Calif., USA) or an anti-a-Tubulin (Sigma # T5168: St. Louis, Mo., USA) mouse monoclonal antibodies, as indicated. […].

p21(CDKN1A) [2] = experiment: p21(CDKN1A) mRNA in SJSA-1 xenograft tumors (qRT-PCR); type: in vivo, Harlan nude mice
Method: Briefly, total RNA was purified from cell pellets using the QIAshredder® (79654, Qiagen:Valencia Calif., USA) and RNeasy Mini Kit® (74106, Qiagen: Valencia Calif., USA) according to the manufacturer's instructions, with the exception that no DNA digestion was performed. Total RNA was eluted with 50 μL of RNase-free water. Total RNA was quantitated using the spectrophotometer ND-1000 Nanodrop® (Wilmington Del., USA). The qRT-PCR (Quantitative Reverse Transcriptase Polymerase Chain Reaction) was set up in triplicate per sample using the One-Step RT qPCR Master Mix Plus (RT-QPRT-032X, Eurogentec: Seraing, Belgium), with either control primers and primers for human p21(CDKN1A) (Hs00355782_m1, Applied Biosystems: Carlsbad Calif., USA) or mouse p21(CDKN1A) (Mm00432448_m1, Applied Biosystems: Carlsbad Calif., USA), namely TaqMan Gene Expression kit assays (20× probe dye FAM™ (or VIC)-TAMRA (or MGB); Applied Biosystems: Carlsbad Calif., USA). […] The number of cycles (CT) was determined, 2^−CT values were calculated, and the value normalized by dividing with the 2^−CT value obtained from the GAPDH control. Fold increase over control (i.e. DMSO- or vehicle-treated animals) was calculated and plotted in the bar graph.

p21(CDKN1A) [3] = experiment: p21(CDKN1A) protein in SJSA-1 xenograft tumors (immunohistochemistry); type: in vivo, Harlan nude mice
Method: SJSA-1 xenograft tumors were collected and a 3-4 mm slice out of the middle of the tumor was removed, transferred into pre-labelled histo-cassettes and immersion-fixed in neutral buffered formalin (NBF) 10% (v/v) (pH 6.8-7.2) (J. T. Baker, Winter Garden, Fla., USA), pre-cooled at 4° C. Tumors were then fixed at room temperature for 24 hours, followed by processing in the TPC 15Duo (Tissue Processing Center, Medite) for paraffinization. Subsequently, the tumor slices were embedded in paraffin and from each paraffin block several 3 μm thick sections were cut on a rotary microtome (Mikrom International AG, Switzerland), spread in a 48° C. water-bath, mounted on glass slides (SuperFrost Plus, Thermo Scientific:Waltham Mass., USA), and dried in an oven either at 37° C. overnight or at 60° C. for 30 min. Dry tissue section were processed for immunohistochemistry (IHC) staining. p21(CDKN1A) immunohistochemistry has been performed using the mouse monoclonal antibody clone SX118 from Dako (Cat. No. M7202 Dako: Carpenteria Calif., USA) at a dilution of 1:50. Immunohistochemistry has been performed on a Ventana Discovery XT automated immunostainer using the N-Histofine Mousestain Kit (Nichirei Bioscience Inc, Japan) in combination with the DABMap Kit chromogen system, omitting the SA-HRP solution (Ventana/Roche Diagnostics GmbH, Mannheim, Germany). […]

[4] = tested on: SJSA-1 osteosarcoma cells; experiment: SJSA-1 xenograft tumor growth; type: in vivo, Harlan nude mice; details: for T/C: 10-day treatment
Method: To further validate the predictive biomarkers disclosed in FIG. 3, in vivo human xenograft models either from human primary samples or from cell lines were directly injected and grown in tumors subcutaneously in mice and then assessed for MDM2i sensitivity. All the animals were allowed to adapt for 4 days and housed in a pathogen-controlled environment (5 mice/Type III cage) with access to food and water ad libitum. Animals were identified with transponders. Studies were performed according to procedures covered by permit number 1975 issued by the Kantonales Veterinaramt Basel-Stadt and strictly adhered to the Eidgenössisches Tierschutzgesetz and the Eidgenössische Tierschutzverordnung. Subcutaneous tumors were induced by concentrating 3.0×10^6 SJSA-1 osteosarcoma cells in 100 μl of PBS (without Ca^2+ and Mg^2+) and injecting in the right flank of Harlan nude mice. The administration of MDM2i began 12-14 days post cell injection. MDM2i was prepared immediately before each administration. MDM2i compounds were dissolved in 0.5% HPMC (hydroxypropylmethylcellulose) and were injected daily (q24h) at 25, 50 or 100 mg/kg. Tumor volumes (TVol), determined from caliper measurements (using the formula l×w×h×π/6) were measured three times per week. Tumor response was quantified by the change in tumor volume (endpoint minus starting value in mm^3) as the T/C, i.e.
In the case of a tumor regression, the tumor response was quantified by the percentage of regression of the starting TVoI, i.e.
The body-weight (BW) of the mice was measured three times per week allowing calculation at any particular time-point relative to the day of initiation of treatment (day 0) of both the percentage change in BW (Δ % BW). […].

C3A cells = experiment: Western blot of p53 pathway proteins in C3A cells; type: cell-based; details: 4 hours
Method: as §1

CCLE cell lines = experiment: Chemical sensitivity of the CCLE cell line panel; type: cell-based
Method: […]. The cell line panel is the one covered by the Cancer Cell Line Encyclopedia (CCLE) initiative (Barretina J., Caponigro G., Stransky N., Venkatesan K., et al. The Cancer Cell Line Encyclopedia enables predictive modeling of anticancer drug sensitivity. Nature 483:603-7, 2012). A detailed genomic, genetic and pharmacologic characterization was conducted on the CCLE cell lines.
p53 mutation status in CCLE cell lines is taken from a data source of gene-level genetic alterations, for example, point-mutations, insertions, deletions and complex genetic alterations, compiled from the Sanger center COSMIC data and internal sources including Exome Capture Sequencing. This comprises data from approximately 1,600 cancer-related genes over the CCLE cell lines.
[…]. […] From such in vitro chemical sensitivity data, the prediction that a cell would be sensitive to an MDM2i treatment was estimated to be 13%. […].

[5] = COLO 792 cells, increasing concentrations
[6] = C3A cells, increasing concentrations

Row | Compound | proliferation and apoptosis (SJSA-1 osteosarcoma line) | reduction of xenograft growth (SJSA-1 cell line) | proliferation and viability of non-cancerous cells (mouse normal fibroblasts) | proliferation and viability of non-cancerous cells (human normal fibroblasts) | tumor cell proliferation [1] | p53 protein levels (COLO 792 cells; [5]) | phospho-p53 (COLO 792 cells; [5]) | expression of p53 target genes p21(CDKN1A) and MDM2 (COLO 792 cells; COLO-792 insensitive cell line) | p21(CDKN1A) mRNA levels in tumors (p21(CDKN1A) [2]) | p21(CDKN1A) protein levels in tumors (p21(CDKN1A) [3]) | T/C ([4]; 25 mg/kg q24h) | T/C ([4]; 50 mg/kg q24h) | tumor regression ([4]; 100 mg/kg q24h for 10 days) | p53 protein levels (C3A cells; [6]) | phospho-p53 (C3A cells; [6]) | expression of p53 target genes p21(CDKN1A) and MDM2 (C3A cells; C3A sensitive cells) | number of insensitive cell lines (CCLE cell lines; CCLE panel) | number of sensitive cell lines (CCLE cell lines; CCLE panel) | sensitivity of p53 mutated cell lines (CCLE cell lines; p53 mutated CCLE cell lines) | sensitivity of p53 wild type cell lines (CCLE cell lines; p53 wild type CCLE cell lines)
1 | COc1ccc(C2=N[C@@H](c3ccc(Cl)cc3)[C@@H](c3ccc(Cl)cc3)N2C(=O)N2CCNC(=O)C2)c(OC(C)C)c1 [Nutlin-3] | reduced proliferation and increased apoptosis | 90% | the proliferation of the cells was slowed, they retained their viability | the proliferation of the cells was slowed, they retained their viability |  |  |  |  |  |  |  |  |  |  |  |  |  |  |  | 
2 | COc1cc2c(cc1OC(C)C)[C@H](c1ccc(Cl)cc1)N(c1ccc(N(C)C[C@H]3CC[C@H](N4CCN(C)C(=O)C4)CC3)cc1)C(=O)C2 [MDM2i(1)] |  |  |  |  | hampering tumor cell proliferation in a p53-dependent manner | induces stabilization of p53 protein levels | no significant increase of phospho-p53 | not in COLO-792 insensitive cell line | significant dose-dependent induction of p21(CDKN1A) mRNA levels in tumors | significant dose-dependent induction of p21(CDKN1A) protein levels in tumors | 50% | 3% | 65% | induces stabilization of p53 protein levels | no significant increase of phospho-p53 | induces a strong de novo expression of both p53 target genes p21(CDKN1A) and MDM2 |  |  |  | 
3 | COc1cc2c(cc1OC(C)C)[C@H](c1ccc(Cl)cc1)N(c1ccc(N(C)C[C@H]3CC[C@H](N4CCNC(=O)C4)CC3)cc1)C(=O)C2 [MDM2i(2)] |  |  |  |  | hampering tumor cell proliferation in a p53-dependent manner |  |  |  |  |  |  |  |  |  |  |  | 309 | 47 | majority of p53 mutated cell lines are found insensitive | more than two-third of p53 wild type cell lines are sensitive
